In ChEMBL document CHEMBL1150976, “The selectivity of protein kinase inhibitors: a further update” (Biochem J, 2007):
Values belong to the compound of their own block, whether it stands above or below them.

What was measured:
[1] = target: Protein kinase C alpha type (Homo sapiens) (UniProt P17252); experiment: Percentage PKCalpha activity remaining in the presence of 25uM inhibitor
[2] = target: Ribosomal protein S6 kinase alpha-3 (Homo sapiens) (UniProt P51812); experiment: Percentage RSK2 activity remaining in the presence of 2uM inhibitor
[3] = target: Calcium/calmodulin-dependent protein kinase kinase 1 (Homo sapiens) (UniProt Q8N5S9); experiment: Percentage CaMKKalpha activity remaining in the presence of 2uM inhibitor
[4] = target: T1, Dual specificity tyrosine-phosphorylation-regulated kinase 2 (Homo sapiens) (UniProt Q92630); experiment: Percentage DYRK2 activity remaining in the presence of 2uM inhibitor
T1 sequence (whole entry): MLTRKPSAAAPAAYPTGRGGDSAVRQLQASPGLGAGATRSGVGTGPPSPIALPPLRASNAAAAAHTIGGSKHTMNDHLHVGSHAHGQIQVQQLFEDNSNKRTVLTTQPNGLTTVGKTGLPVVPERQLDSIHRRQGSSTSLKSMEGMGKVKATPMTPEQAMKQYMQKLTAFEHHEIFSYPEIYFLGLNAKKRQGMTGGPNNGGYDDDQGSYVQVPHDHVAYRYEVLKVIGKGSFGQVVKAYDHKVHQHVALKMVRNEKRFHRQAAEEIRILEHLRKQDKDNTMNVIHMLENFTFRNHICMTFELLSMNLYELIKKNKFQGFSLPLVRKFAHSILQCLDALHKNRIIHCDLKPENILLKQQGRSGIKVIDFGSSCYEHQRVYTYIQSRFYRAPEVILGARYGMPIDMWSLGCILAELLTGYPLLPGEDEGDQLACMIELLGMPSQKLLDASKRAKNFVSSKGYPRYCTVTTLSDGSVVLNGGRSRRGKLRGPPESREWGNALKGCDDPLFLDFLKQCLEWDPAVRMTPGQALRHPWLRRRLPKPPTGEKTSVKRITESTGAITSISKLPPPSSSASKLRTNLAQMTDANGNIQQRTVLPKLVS

[5] = target: MAP kinase-interacting serine/threonine-protein kinase 2 (Homo sapiens) (UniProt Q9HBH9); experiment: Percentage MNK2 activity remaining in the presence of 2uM inhibitor
[6] = target: MAP kinase-activated protein kinase 3 (Homo sapiens) (UniProt Q16644); experiment: Percentage MAPKAPK3 activity remaining in the presence of 2uM inhibitor
[7] = target: SRSF protein kinase 1 (Homo sapiens) (UniProt Q96SB4); experiment: Percentage SRPK1 activity remaining in the presence of 2uM inhibitor; settings: filed as antagonist
[8] = target: Calcium/calmodulin-dependent protein kinase type 1 (Homo sapiens) (UniProt Q14012); experiment: Percentage CaMK1 activity remaining in the presence of 2uM inhibitor
[9] = species on record: Homo sapiens; experiment: Percentage PHK activity remaining in the presence of 2uM inhibitor
[10] = target: Calcium/calmodulin-dependent protein kinase kinase 2 (Homo sapiens) (UniProt Q96RR4); experiment: Percentage CaMKKbeta activity remaining in the presence of 2uM inhibitor
[11] = target: cAMP-dependent protein kinase catalytic subunit alpha (Homo sapiens, UniProt P17612); experiment: Percentage PKA activity remaining in the presence of 2uM inhibitor
[12] = target: Homeodomain-interacting protein kinase 2 (Homo sapiens) (UniProt Q9H2X6); experiment: Percentage HIPK2 activity remaining in the presence of 2uM inhibitor; settings: filed as antagonist
[13] = target: Serine/threonine-protein kinase Nek7 (Homo sapiens) (UniProt Q8TDX7); experiment: Percentage NEK7 activity remaining in the presence of 2uM inhibitor
[14] = target: Proto-oncogene tyrosine-protein kinase Src (Gallus gallus) (UniProt P00523); experiment: Percentage Src activity remaining in the presence of 2uM inhibitor
[15] = target: RAC-beta serine/threonine-protein kinase (Homo sapiens) (UniProt P31751); experiment: Percentage PKBbeta activity remaining in the presence of 2uM inhibitor
[16] = target: Cyclin-dependent kinase 2/cyclin A (Homo sapiens, UniProt P24941); experiment: Inhibition of CDK2-cyclinA in the presence of 20uM ATP; format: protein-complex assay
[17] = target: Serine/threonine-protein kinase PAK 6 (Homo sapiens) (UniProt Q9NQU5); experiment: Percentage PAK6 activity remaining in the presence of 3uM inhibitor
[18] = target: Proto-oncogene tyrosine-protein kinase Src (Gallus gallus, UniProt P00523); experiment: Inhibition of Src in the presence of 50uM ATP
[19] = target: Proto-oncogene tyrosine-protein kinase Src (Gallus gallus) (UniProt P00523); experiment: Percentage Src activity remaining in the presence of 3uM inhibitor; settings: filed as antagonist
[20] = target: Homeodomain-interacting protein kinase 3 (Homo sapiens) (UniProt Q9H422); experiment: Percentage HIPK3 activity remaining in the presence of 3uM inhibitor
[21] = target: Ribosomal protein S6 kinase beta-1 (Homo sapiens, UniProt P23443); experiment: Inhibition of S6K1 in the presence of 20uM ATP
[22] = target: MAP kinase-activated protein kinase 3 (Homo sapiens) (UniProt Q16644); experiment: Percentage MAPKAPK3 activity remaining in the presence of 3uM inhibitor
[23] = target: Serine/threonine-protein kinase PLK1 (Homo sapiens, UniProt P53350); experiment: Percentage PLK1 activity remaining in the presence of 3uM inhibitor
[24] = target: Calcium/calmodulin-dependent protein kinase type 1 (Homo sapiens) (UniProt Q14012); experiment: Percentage CaMK1 activity remaining in the presence of 3uM inhibitor
[25] = target: Dual specificity mitogen-activated protein kinase kinase 1 (Homo sapiens) (UniProt Q02750); experiment: Percentage MKK1 activity remaining in the presence of 3uM inhibitor
[26] = target: Serine/threonine-protein kinase N2 (Homo sapiens) (UniProt Q16513); experiment: Percentage PRK2 activity remaining in the presence of 3uM inhibitor
[27] = target: T2, Inhibitor of nuclear factor kappa-B kinase subunit epsilon (Homo sapiens) (UniProt Q14164); experiment: Percentage IKKepsilon activity remaining in the presence of 0.01uM inhibitor; settings: filed as antagonist
T2 sequence (whole entry): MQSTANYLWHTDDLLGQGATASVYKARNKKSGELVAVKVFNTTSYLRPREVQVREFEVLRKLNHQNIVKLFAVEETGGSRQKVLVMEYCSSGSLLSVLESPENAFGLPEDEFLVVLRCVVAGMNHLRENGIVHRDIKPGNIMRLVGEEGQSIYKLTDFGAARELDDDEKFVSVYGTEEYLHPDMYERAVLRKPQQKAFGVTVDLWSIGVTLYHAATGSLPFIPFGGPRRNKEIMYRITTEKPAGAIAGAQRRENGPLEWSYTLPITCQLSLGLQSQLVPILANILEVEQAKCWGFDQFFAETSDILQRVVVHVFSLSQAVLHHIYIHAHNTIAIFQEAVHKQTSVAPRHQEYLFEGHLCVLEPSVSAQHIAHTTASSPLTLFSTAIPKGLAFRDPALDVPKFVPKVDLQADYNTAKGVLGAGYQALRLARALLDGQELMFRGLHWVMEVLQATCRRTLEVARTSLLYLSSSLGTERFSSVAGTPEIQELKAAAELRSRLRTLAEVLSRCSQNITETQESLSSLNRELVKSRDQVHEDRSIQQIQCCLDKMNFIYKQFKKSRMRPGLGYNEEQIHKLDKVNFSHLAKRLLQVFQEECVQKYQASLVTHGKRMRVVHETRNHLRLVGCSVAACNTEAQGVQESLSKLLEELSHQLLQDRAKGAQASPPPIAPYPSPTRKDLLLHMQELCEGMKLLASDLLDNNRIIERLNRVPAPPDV

Sequence of MAP kinase-activated protein kinase 3 (Homo sapiens) (Q16644 whole entry, looked up): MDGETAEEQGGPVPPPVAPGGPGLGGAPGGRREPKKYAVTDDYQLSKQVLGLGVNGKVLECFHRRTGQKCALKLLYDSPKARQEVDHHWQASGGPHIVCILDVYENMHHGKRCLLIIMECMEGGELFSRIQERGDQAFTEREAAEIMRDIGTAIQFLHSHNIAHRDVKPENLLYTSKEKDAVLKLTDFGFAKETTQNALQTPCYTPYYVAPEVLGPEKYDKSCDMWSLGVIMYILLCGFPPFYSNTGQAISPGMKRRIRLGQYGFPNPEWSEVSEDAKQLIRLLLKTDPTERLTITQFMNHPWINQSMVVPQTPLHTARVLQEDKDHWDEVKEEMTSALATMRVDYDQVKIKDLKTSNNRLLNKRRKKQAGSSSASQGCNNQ
Sequence of Calcium/calmodulin-dependent protein kinase type 1 (Homo sapiens) (Q14012 whole entry, looked up): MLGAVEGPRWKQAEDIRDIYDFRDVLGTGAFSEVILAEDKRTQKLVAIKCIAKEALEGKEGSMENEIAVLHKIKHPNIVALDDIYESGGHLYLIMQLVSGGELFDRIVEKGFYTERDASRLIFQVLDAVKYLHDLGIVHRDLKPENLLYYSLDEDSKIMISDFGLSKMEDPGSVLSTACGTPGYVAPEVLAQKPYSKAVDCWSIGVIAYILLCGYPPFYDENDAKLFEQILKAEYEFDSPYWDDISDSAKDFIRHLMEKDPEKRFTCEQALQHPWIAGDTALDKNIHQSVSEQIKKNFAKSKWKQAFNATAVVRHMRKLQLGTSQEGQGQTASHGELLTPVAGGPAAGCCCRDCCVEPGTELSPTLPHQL
Sequence of Serine/threonine-protein kinase Nek7 (Homo sapiens) (Q8TDX7 whole entry, looked up): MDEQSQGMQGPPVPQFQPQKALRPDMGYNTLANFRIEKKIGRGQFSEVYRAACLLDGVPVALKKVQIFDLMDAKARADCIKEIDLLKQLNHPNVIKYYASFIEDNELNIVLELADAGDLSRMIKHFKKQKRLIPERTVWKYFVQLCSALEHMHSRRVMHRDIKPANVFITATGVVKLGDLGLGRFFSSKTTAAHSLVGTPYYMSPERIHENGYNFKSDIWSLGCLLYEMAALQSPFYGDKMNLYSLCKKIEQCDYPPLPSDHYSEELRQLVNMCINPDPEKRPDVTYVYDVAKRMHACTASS
Sequence of RAC-beta serine/threonine-protein kinase (Homo sapiens) (P31751 whole entry): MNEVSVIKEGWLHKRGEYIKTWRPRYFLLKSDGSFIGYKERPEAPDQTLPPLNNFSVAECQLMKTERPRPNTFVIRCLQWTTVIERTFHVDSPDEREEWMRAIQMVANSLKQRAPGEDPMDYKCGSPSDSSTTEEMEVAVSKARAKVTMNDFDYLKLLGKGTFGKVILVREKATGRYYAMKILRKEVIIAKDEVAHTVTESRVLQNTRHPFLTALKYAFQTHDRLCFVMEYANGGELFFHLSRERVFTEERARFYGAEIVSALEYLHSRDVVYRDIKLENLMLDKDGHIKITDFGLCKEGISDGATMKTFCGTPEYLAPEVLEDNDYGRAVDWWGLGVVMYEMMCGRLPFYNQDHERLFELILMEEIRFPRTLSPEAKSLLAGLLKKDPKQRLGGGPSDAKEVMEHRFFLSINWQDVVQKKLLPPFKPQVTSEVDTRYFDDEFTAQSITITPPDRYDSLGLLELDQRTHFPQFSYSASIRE
Sequence of Homeodomain-interacting protein kinase 3 (Homo sapiens) (Q9H422 whole entry, looked up): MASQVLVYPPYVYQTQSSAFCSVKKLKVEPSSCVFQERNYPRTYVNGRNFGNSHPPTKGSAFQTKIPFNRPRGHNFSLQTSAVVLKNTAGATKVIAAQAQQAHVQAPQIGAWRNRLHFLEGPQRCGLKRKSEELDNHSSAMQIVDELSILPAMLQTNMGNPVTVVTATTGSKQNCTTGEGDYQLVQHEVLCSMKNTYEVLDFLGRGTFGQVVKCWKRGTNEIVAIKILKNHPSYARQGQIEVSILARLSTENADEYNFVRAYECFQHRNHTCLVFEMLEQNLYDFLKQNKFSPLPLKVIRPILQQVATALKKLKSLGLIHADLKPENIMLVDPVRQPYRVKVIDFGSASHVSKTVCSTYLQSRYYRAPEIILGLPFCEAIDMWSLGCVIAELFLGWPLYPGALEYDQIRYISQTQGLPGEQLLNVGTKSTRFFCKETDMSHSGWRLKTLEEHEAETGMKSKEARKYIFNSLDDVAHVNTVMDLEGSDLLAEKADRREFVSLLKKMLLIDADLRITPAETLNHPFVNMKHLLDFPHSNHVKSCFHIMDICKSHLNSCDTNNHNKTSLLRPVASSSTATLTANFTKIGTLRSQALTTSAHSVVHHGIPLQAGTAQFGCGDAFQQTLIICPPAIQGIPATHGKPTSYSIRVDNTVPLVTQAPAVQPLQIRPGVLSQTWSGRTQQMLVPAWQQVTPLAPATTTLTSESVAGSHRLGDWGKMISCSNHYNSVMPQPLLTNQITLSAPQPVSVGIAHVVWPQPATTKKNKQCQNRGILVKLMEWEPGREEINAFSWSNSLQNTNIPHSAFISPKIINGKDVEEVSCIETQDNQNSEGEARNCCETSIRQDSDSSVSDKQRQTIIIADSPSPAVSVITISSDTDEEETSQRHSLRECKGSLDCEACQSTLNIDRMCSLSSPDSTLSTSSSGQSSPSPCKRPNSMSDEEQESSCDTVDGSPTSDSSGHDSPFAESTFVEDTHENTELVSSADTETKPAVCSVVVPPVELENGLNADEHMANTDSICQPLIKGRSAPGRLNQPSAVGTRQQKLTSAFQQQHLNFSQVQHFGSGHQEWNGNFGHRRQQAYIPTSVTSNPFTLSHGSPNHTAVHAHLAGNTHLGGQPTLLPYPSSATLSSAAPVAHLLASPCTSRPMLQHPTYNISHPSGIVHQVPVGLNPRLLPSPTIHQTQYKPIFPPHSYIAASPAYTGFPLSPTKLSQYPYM
Sequence of Serine/threonine-protein kinase PLK1 (P53350 whole entry): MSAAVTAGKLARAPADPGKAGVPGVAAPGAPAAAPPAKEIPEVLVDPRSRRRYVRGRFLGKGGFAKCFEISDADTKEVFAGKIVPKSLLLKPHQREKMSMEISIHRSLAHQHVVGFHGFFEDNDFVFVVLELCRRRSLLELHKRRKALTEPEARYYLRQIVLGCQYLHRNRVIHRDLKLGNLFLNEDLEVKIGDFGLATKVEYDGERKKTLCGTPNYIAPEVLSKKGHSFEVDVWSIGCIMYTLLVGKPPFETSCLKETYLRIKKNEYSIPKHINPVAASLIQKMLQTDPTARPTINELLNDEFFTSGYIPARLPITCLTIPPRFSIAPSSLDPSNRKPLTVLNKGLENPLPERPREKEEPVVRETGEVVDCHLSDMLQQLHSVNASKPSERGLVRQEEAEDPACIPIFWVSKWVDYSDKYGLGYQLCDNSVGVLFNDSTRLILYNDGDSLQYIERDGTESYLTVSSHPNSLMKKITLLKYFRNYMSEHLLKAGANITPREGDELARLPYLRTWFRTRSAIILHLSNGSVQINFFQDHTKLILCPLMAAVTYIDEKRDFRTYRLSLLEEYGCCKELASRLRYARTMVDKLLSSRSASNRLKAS
Sequence of Ribosomal protein S6 kinase beta-1 (P23443 whole entry): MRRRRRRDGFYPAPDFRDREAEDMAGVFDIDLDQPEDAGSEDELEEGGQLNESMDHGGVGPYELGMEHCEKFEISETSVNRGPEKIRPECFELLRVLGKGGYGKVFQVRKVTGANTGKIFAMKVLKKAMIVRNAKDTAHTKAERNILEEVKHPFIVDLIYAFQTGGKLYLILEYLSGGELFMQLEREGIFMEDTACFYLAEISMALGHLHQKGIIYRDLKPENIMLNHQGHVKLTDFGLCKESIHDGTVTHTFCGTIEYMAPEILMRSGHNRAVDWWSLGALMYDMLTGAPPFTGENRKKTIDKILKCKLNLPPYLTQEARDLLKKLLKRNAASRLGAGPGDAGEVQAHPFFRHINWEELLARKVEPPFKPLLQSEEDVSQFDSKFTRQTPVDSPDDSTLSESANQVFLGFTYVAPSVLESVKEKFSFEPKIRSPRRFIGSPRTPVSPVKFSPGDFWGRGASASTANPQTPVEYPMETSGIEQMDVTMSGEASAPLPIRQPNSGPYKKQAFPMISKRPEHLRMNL
Sequence of SRSF protein kinase 1 (Homo sapiens) (Q96SB4 whole entry): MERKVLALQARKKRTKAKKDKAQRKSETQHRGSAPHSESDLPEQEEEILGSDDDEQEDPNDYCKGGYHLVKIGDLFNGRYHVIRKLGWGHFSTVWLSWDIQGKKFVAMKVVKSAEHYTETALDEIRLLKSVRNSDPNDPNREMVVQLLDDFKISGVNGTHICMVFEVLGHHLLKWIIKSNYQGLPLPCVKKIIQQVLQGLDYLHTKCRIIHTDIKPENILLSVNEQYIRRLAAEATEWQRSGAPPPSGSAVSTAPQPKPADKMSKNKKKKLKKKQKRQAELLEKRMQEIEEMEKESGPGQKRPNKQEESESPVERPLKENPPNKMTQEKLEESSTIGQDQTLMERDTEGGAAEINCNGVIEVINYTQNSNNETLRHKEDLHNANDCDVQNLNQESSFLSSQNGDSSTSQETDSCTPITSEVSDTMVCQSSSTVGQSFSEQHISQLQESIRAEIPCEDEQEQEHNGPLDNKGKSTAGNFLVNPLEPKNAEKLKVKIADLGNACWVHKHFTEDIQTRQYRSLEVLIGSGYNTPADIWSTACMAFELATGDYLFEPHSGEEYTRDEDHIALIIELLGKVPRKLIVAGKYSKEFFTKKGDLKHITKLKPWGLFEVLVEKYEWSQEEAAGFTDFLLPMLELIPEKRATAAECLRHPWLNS
Sequence of MAP kinase-interacting serine/threonine-protein kinase 2 (Homo sapiens) (Q9HBH9 whole entry, looked up): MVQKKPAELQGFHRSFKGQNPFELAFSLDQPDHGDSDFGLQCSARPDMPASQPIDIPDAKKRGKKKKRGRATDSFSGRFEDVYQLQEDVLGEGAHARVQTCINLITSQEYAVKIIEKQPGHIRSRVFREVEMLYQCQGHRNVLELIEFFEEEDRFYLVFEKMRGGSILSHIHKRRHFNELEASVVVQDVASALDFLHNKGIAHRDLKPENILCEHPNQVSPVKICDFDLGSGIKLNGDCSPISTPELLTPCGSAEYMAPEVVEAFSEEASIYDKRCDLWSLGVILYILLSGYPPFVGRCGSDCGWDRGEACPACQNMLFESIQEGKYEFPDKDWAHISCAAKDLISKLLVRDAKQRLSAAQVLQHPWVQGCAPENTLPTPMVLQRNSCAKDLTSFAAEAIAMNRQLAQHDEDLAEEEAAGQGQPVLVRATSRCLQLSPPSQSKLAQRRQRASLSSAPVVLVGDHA

Compound: NCCNS(=O)(=O)c1ccc(Cl)c2ccncc12
- Activity [1]: 86%

Compound: CC(C)[C@H](CO)Nc1nc(Nc2cccc(Cl)c2)c2ncn(C(C)C)c2n1 [PURVALANOLA]
- IC50 [16]: 30 nM (antagonist)

Compound: Cc1ccc(-c2c(C(=O)CF)n(CCCO)c3ncnc(N)c23)cc1
- Activity [17]: 93%
- IC50 [18]: 560 nM (antagonist)
- Activity [19]: 10%
- Activity [20]: 79%
- IC50 [21]: 950 nM (antagonist)
- Activity [22]: 92%
- Activity [23]: 82%
- Activity [24]: 77%
- Activity [25]: 80%
- Activity [26]: 83%

Continued, values first:

- Activity [2]: 67%
- Activity [3]: 85%
- Activity [4]: 92%
- Activity [5]: 94%
- Activity [6]: 103%
- Activity [7]: 16%
- Activity [8]: 96%
- Activity [9]: 87%
- Activity [10]: 82%
- Activity [11]: 88%
- Activity [12]: 15%
- Activity [13]: 85%
- Activity [14]: 83%
- Activity [15]: 96%
Compound: Cn1cc(C2=C(c3ccc(Cl)cc3Cl)C(=O)NC2=O)c2ccccc21

- Activity [27]: 21%
Compound: O=C(NCCCNc1nc(Nc2cccc(NC(=O)N3CCCC3)c2)ncc1I)c1cccs1
